Measured values from patent US4659728A, “Hydroxy substituted 4,5-diphenyl-2-oxazole propanoic acid” (American Home Products Corporation, priority 1985, dated 1987).

How the values were obtained:
inflammation = experiment: Antiinflammatory activity overall (standard procedures: carrageenan paw edema and adjuvant arthritis in the rat); type: in vivo; details: compared with oxaprozin
Description: (§1) The antiinflammatory utility of the compounds of this invention was established by standard procedures for evaluating antiinflammatory agents, namely, carrageenan paw edema in the rat and adjuvant arthritis (polyarthritis) in the rat. These procedures and the results obtained are summarized below:
(§2) Groups of 6 male Sprague-Dawley rats (Honey Brook), weighing between 140-160 g were used in these experiments. Drugs were administered p.o. in 0.5% methylcellulose (400 centipoise). One hour after administering drugs or vehicle, 0.1 ml of 1% carrageenan was injected subplantar into the right hind paw. Right paw volumes were measured prior to carrageenan injection in milliliters using a mercury plethysmograph (i.e., zero time reading). After 3 hours, right paw volumes were remeasured and paw edema was calculated for each rat by subtracting the zero time reading from the 3 hour reading. Percent change in paw edema was calculated.
Groups of 10 male Lewis rats (Charles River), weighing between 150-170 g were injected s.c. into the right paw with desiccated Mycobacterium butyricum (0.5 mg/0.1 ml) suspended in light mineral oil. […] Both hind paw volumes, in milliliters, were measured by mercury plethysmography at the time of injection of the complete adjuvant (day 0). Paw volumes were measured on day 4 (injected paw only) and on day 16 (uninjected paw). […]

[1] = tested on: carrageenan paw edema in the rat; experiment: Rat carrageenan edema; type: in vivo, rat (male Sprague-Dawley); details: 1 h before carrageenan, edema at 3 h, *p ≤ 0.01 from control
Description: as §1, §2

[2] = tested on: adjuvant arthritis (polyarthritis) in the rat; experiment: Rat adjuvant arthritis; type: in vivo, rat (male Lewis); details: oral dose 150 mg/kg, days 0 to 15 except weekends; *p ≤ 0.01 from control
Description: as §1
Groups of 10 male Lewis rats (Charles River), weighing between 150-170 g were injected s.c. into the right paw with desiccated Mycobacterium butyricum (0.5 mg/0.1 ml) suspended in light mineral oil. Drugs were administered orally in 0.5% methylcellulose. The following dosing regimen was used: days 0 to 15 except for weekends. Both hind paw volumes, in milliliters, were measured by mercury plethysmography at the time of injection of the complete adjuvant (day 0). Paw volumes were measured on day 4 (injected paw only) and on day 16 (uninjected paw). Drug effects were expressed as percentage change from arthritic controls.

Structure (SMILES): O=C(O)CCc1nc(-c2ccccc2)c(-c2ccc(O)cc2)o1 [Example 1, 5-(4-hydroxyphenyl)-4-phenyl-2-oxazolepropanoic acid]
- effectiveness in inhibiting inflammation (inflammation): as effective as oxaprozin in inhibiting inflammation
- % Inhibition of control paw edema ([1]; oral dose 150 mg/kg): 43%
- % Inhibition of control uninjected paw edema at day 16 [2]: 36%

Structure (SMILES): O=C(O)CCc1nc(-c2ccc(O)cc2)c(-c2ccccc2)o1 [Example 2, 4-(4-Hydroxyphenyl)-5-phenyl-2-oxazolepropanoic acid]
- effectiveness in inhibiting inflammation (inflammation): as effective as oxaprozin in inhibiting inflammation
- % Inhibition of control paw edema ([1]; oral dose 150 mg/kg): 46%
- % Inhibition of control uninjected paw edema at day 16 [2]: 30%

Structure (SMILES): O=C(O)CCc1nc(-c2ccccc2)c(-c2ccccc2)o1 [Oxaprozin, 4,5-diphenyl-2-oxazolepropanoic acid, reference compound]
- % Inhibition of control paw edema ([1]; oral dose 200 mg/kg): 51%
- % Inhibition of control uninjected paw edema at day 16 [2]: 25%
